Like-named read-outs stand apart in the source and are kept apart here.
Experiments:
[1] = Single dose pharmacokinetics (PK) study in male Wister-Han rats; format: in vivo, rat; conditions: for F: dose normalized AUC0-last PO 10 mg/kg vs IV 2 mg/kg; for AUC(0-t) / Cmax / clearance / half-life / Vd: rat, plasma; for Vd: read-out: Vss
Procedure: Pharmacokinetic properties of selected compounds were assessed by single dose PK studies in Male Wister-Han Rats (vendor: Beijing Vital River Laboratory Animal Technology Co., Ltd). Briefly, two groups of animals were administered a single dose of respective compound intravenously (IV, bolus) at 2 mg/kg or orally (PO, by gavage) at 10 mg/kg. Blood samples (approximately 150 μL) were collected via Jugular vein at 5 min (only for IV), 15 min, 30 min, 1 h, 2 h, 4 h, 7 h and 24 h post-dose. Blood samples were placed into tubes containing EDTA-K2 anticoagulant and centrifuged at 3000 rpm for 15 min at 4° C. to separate plasma from the samples. After centrifugation, the resulting plasma was transferred to clean tubes for bioanalysis with LC/MS/MS. The pharmacokinetic parameters were calculated using non-compartmental analysis. The volume of distribution (Vss), half-life (T1/2) and clearance (CL) were obtained based on the plasma concentration-time curve after IV dose. The peak concentration (Cmax) was recorded directly from experimental observations after PO dose. The area under the plasma concentration-time curve (AUC0-last) was calculated using the linear trapezoidal rule up to the last detectable concentration. The bioavailability (F) was calculated based on the dose normalized AUC0-last after IV and PO dose.
The Vss of a drug represents the degree to which a drug is distributed in body tissue rather than the plasma. Vss is directly proportional with the amount of drug distributed into tissue. A higher Vss indicates a greater amount of tissue distribution.

[2] = test system: Balb/c 3T3 mouse fibroblasts; experiment: 3T3 in vitro phototoxicity assay (Neutral Red uptake); format: cell-based; conditions: for Phototoxicity factor: IC50 without vs with UV-A exposure, cut-off factor >5; for IC50: Mus musculus, BALB/c3T3, light or radiation study, 3T3 fibroblasts, approx. 5 J/cm^2 UVA, Neutral Red uptake
From the text: Phototoxicity is defined as a toxic response that is elicited after the first exposure of the skin to certain chemicals and subsequent exposure to light, or that is induced similarly by skin irradiation after systemic administration of a chemical substance. The assay used in this study is designed to detect the phototoxic potential of a chemical by using a simple in vitro cytotoxicity assay with Balb/c 3T3 mouse fibroblasts. The principle of this test is a comparison of the cytotoxicity of a chemical when tested with and without exposure to a non-toxic dose of UVA-light. Cytotoxicity is expressed as a dose dependent reduction of the growth rate of cells as determined by uptake of the vital dye Neutral Red one day after treatment.
A small amount of substance was weighed and formulated freshly in DMSO just before the start of the exposure of the cells. This stock solution or appropriate dilutions with DMSO were added to the cell suspensions to obtain the required final concentrations. All solutions were generally prepared in Eppendorf caps and discarded after use.
• Chlorpromazine (HCL) (Sigma, Batch/Lot No.: 120M1328V), test concentration: 300 μg/mL, Solvent: PBS/3% DMSO
For this study the Neutral Red uptake (NRU) assay of Borenfreund and Puerner (Borenfreund, E, Puerner J A. Toxicity determined in vitro by morphological alterations and Neutral Red absorption. Toxicology Lett. 1985; 24:119-124) modified according to INVITTOX protocol No 78 (ERGATT/FRAME data bank of in vitro techniques in toxicology. INVITTOX PROTOCOL No 78. 3T3 NRU Phototoxicity Assay. March 1994) has been adapted to examine a possible phototoxic potential of the test item. This assay is based on the active uptake of the Neutral Red dye into the lysosomes of cultured murine fibroblasts. Because lysosomal membranes are known to be a site of action of many phototoxic compounds, this assay can provide a measure of potential for phototoxic injury.
A murine fibroblasts clone A 31 (ATCC no. CCL 163—passage No. 108) were cultured in 175 cm^2 tissue culture grade flasks, containing sDMEM (Dulbecco's […] Essential Medium, supplemented with 10% fetal calf serum, 2 mM L-glutamine, 100 units/ml Penicillin and 100 μg/ml streptomycin) at 37° C. in a humidified atmosphere of 6% CO2. Before cells approach confluence they were removed from flasks by trypsinisation. Prior to use in an assay, the cells were transferred to 96-well microtiter plates at a concentration of 1×10^4 cells/well in 100 μl volumes of sDMEM and allowed to attach for 24 h.
For incubation with murine fibroblasts, the test item was diluted in PBS/3% DMSO (detailed concentrations see in results).
Culture medium (Dulbecco's Modified Eagle Medium(DMEM), GlutaMAX (Gibco Ref 21885-025), 10% Fetal Bovine Serum (FBS) (Gibco Ref 10270-106), 1001U/ml Penicillin and 100 μg/mL Streptomycin (Gibco Ref 15140-122)) was removed from the wells and murine fibroblasts were washed with PBS. Afterwards 100 μL of PBS/3% DMSO containing the test item was added and target cells were incubated for 1 h at 37° C. with 6% CO2.
For each test item the microtiter plates were prepared according to Table 6. “UVA plates” were exposed to approx. 5 J/cm^2 UVA light, the “Dark plates” were kept in the dark and served as cytotoxicity control. Plates with chlorpromazine hydrochloride served as positive control. UV flux was measured with a UV-meter (Dr. Gröbel RM21).
Following UV irradiation, the test item was removed from the wells (one washing step with PBS) and replaced with sDMEM. Target cells were then incubated overnight at 37° C. in 6% CO2.
Each plate contained wells with cells and solvent but without test item which were either not incubated with Neutral Red solution (0% standard—S1) or were stained with Neutral Red (100% standard—S2) for calculation of the standard cell viability curve. Wells labeled with U01-U08 contained the different test item concentrations. […]

[3] = IV 2 mg/kg, read-out: IV AUC0-last
[4] = PO 10 mg/kg, read-out: PO AUC0-last

Structure (SMILES) | F [1] [%] | AUC(0-t) [1, 3] [ng·h/mL] | Cmax ([1]; PO 10 mg/kg) [ng/mL] | AUC(0-t) [1, 4] [ng·h/mL] | clearance ([1]; IV 2 mg/kg) [mL/min/kg] | half-life ([1]; IV 2 mg/kg) [min] | Vd ([1]; IV 2 mg/kg) [L/kg] | Phototoxicity factor [2] | IC50 [2] [µg/mL]
C[C@H]1CN(c2ccnc3c2cnn3C)Cc2ccc(N3CCNCC3)cc21 [Example 1, (4R)-4-methyl-2-(1-methylpyrazolo[3,4-b]pyridin-4-yl)-6-piperazin-1-yl-3,4-dihydro-1H-isoquinoline] | 113 | 1290 | 474 | 7270 | 24 | 414 | 11.2 | – | –
CO[C@@H]1CN(c2ccc3c(n2)[C@@H](C)CN(c2cc(C)nc4c2cnn4C)C3)C[C@H]1N [Example 63, (3R,4R)-4-methoxy-1-[(8S)-6-(1,6-dimethylpyrazolo[3,4-b]pyridin-4-yl)-8-methyl-7,8-dihydro-5H-1,6-naphthyridin-2-yl]pyrrolidin-3-amine] | 98 | 80700 | 22200 | 394000 | 0.26 | 1100 | 0.38 | 1 | > 100
CO[C@@H]1CN(c2ccc3c(c2)[C@@H](C)CN(c2ccnc4c2cnn4C)C3)C[C@H]1N [Example 20, (3R,4R)-4-methoxy-1-[(4R)-4-methyl-2-(1-methylpyrazolo[3,4-b]pyridin-4-yl)-3,4-dihydro-1H-isoquinolin-6-yl]pyrrolidin-3-amine] | 60 | 5480 | 1140 | 16500 | 6 | 198 | 1.5 | 1 | > 100
Cn1ncc2c(N3CCc4cc(N5CCNCC5)ccc4C3)ccnc21 [Example 3, 2-(1-methylpyrazolo[3,4-b]pyridin-4-yl)-6-piperazin-1-yl-3,4-dihydro-1H-isoquinoline] | – | – | – | – | – | – | – | 1 | > 100
CO[C@@H]1CN(c2ccc3c(c2)[C@@H](C)CN(c2cc(C)nc4c2cnn4C)C3)C[C@H]1N [Example 23, (3R,4R)-4-methoxy-1-[(4R)-2-(1,6-dimethylpyrazolo[3,4-b]pyridin-4-yl)-4-methyl-3,4-dihydro-1H-isoquinolin-6-yl]pyrrolidin-3-amine] | 73 | 7550 | 1600 | 27500 | 3.7 | 630 | 2.7 | – | –
C[C@H]1CN(c2ccnc3c2cnn3C)Cc2ccc(OC[C@@H]3CNCCN3)cc21 [Example 19, (4R)-4-methyl-2-(1-methylpyrazolo[3,4-b]pyridin-4-yl)-6-[[(2S)-piperazin-2-yl]methoxy]-3,4-dihydro-1H-isoquinoline] | 32 | 887 | 102 | 1410 | 34 | 534 | 16 | – | –
